From patent US20170129916A1, “NOVEL BETULINIC PROLINE IMIDAZOLE DERIVATIVES AS HIV INHIBITORS” (HETERO RESEARCH FOUNDATION, priority 2014, published 2017)

Experiments:
[1] = Single dose oral pharmacokinetic study; type: in vivo; details: mouse, mice, 30 mg/kg, plasma; for AUC(0-t): read-out: Mice oral PK @30 mg/kg AUC 0-t; for Cmax: read-out: Mice oral PK @30 mg/kg Cmax
Method in brief: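 Rats or mice received 30 mg/kg orally at 10 ml/kg dose volume. Retro-orbital blood was taken into K3 EDTA at defined intervals under light ether anesthesia and centrifuged to plasma. Plasma levels were measured by LC-MS-MS.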

[2] = tested on: HIV-1 strains, for e.g., 92HT599; test: Antiviral activity: p24 estimation in MT-2 cells infected with HIV-1; type: cell-based; details: Human immunodeficiency virus 1, MT2, MT-2 cells infected with HIV-1, p24, ~96 hours; for IC50: read-out: Antiviral activity IC50 (nM) Efficacy IC50
Method: MT-2 cells were infected with required number of TCID50's of HIV-1 strains, for e.g., 92HT599. The infected cells were plated at the concentration of 30, 000 cells per well in a 96 well plate. Test compound was added to the 96 well plate with the final concentration of DMSO (vehicle—not more than 1%). The plates are then incubated in a CO2 incubator for ˜96 hours (˜4 days) for viral infection. At the end of incubation period an aliquot from each well was taken for p24 estimation. The quantitation of p24 is an estimated index for antiviral activity of the compound. Percent inhibition was calculated with reference to control values (vehicle controls).
p-24 estimation was carried out using Advance biosciences kit as per the procedure detailed by supplier.

Row | SMILES | AUC(0-t) [1] [µg·h/mL] | Cmax [1] [ng/mL] | IC50 [2] [nM] | inhibition at 0.1 µM [2] [%] | inhibition at 1 µM [2] [%]
1 | C=C(C)[C@@H]1CC[C@]2(C(=O)N3CCC[C@H]3c3nc(C(C)(C)C)c[nH]3)CC[C@]3(C)[C@H](CC[C@@H]4[C@@]5(C)CC[C@H](OC(=O)[C@H]6C[C@@H](C(=O)O)C6(C)C)C(C)(C)[C@@H]5CC[C@]43C)[C@@H]12 [Compound 18, (1R,3S)-3-((((1R,3aS,5aR,5bR,7aR,9S,11aR,11bR,13aR,13bR)-3a-((S)-2-(4-(tert-butyl)-1H-imidazol-2-yl)pyrrolidine-1-carbonyl)-5a,5b,8,8,11a-pentamethyl-1-(prop-1-en-2-yl)icosahydro-1H-cyclopenta[a]chrysen-9-yl)oxy)carbonyl)-2,2-dimethylcyclobutane-1-carboxylic acid] | 409 | 16400 | 35.8 | – | –
2 | C=C(C)[C@@H]1CC[C@]2(C(=O)N3CCC[C@H]3c3ncc(-c4ccccc4)[nH]3)CC[C@]3(C)[C@H](CC[C@@H]4[C@@]5(C)CC[C@H](OC(=O)C[C@H]6C[C@@H](C(=O)O)C6(C)C)C(C)(C)[C@@H]5CC[C@]43C)[C@@H]12 [Compound 21, (1R,3R)-2,2-dimethyl-3-(2-oxo-2-(((1R,3aS,5aR,5bR,7aR,9S,11aR,11bR,13aR,13bR)-5a,5b,8,8,11a-pentamethyl-3a-((S)-2-(5-phenyl-1H-imidazol-2-yl)pyrrolidine-1-carbonyl)-1-(prop-1-en-2-yl)icosahydro-1H-cyclopenta[a]chrysen-9-yl)oxy)ethyl)cyclo butane-1-carboxylic acid] | 269 | 13000 | 1.29 | – | –
3 | C=C(C)[C@@H]1CC[C@]2(C(=O)N3CCC[C@H]3c3ncc(-c4ccccc4)[nH]3)CC[C@]3(C)[C@H](CC[C@@H]4[C@@]5(C)CC[C@H](OC(=O)c6ccc(OC(C)(C)C(=O)O)cc6)C(C)(C)[C@@H]5CC[C@]43C)[C@@H]12 [Compound 23, 2-methyl-2-(4-((((1R,3aS,5aR,5bR,7aR,9S,11aR,11bR,13aR,13bR)-5a,5b,8,8,11a-pentamethyl-3a-((S)-2-(5-phenyl-1H-imidazol-2-yl)pyrrolidine-1-carbonyl)-1-(prop-1-en-2-yl)icosahydro-1H-cyclopenta[a]chrysen-9-yl)oxy)carbonyl)phenoxy)propanoic acid] | 302 | 10600 | 0.7 | – | –
4 | C=C(C)[C@@H]1CC[C@]2(C(=O)N3CCC[C@H]3c3nnc(-c4ccccc4)[nH]3)CC[C@]3(C)[C@H](CC[C@@H]4[C@@]5(C)CC[C@H](OC(=O)[C@H]6C[C@@H](C(=O)O)C6(C)C)C(C)(C)[C@@H]5CC[C@]43C)[C@@H]12 [Compound 24, (1R,3S)-2,2-dimethyl-3-((((1R,3aS,5aR,5bR,7aR,9S,11aR,11bR,13aR,13bR)-5a,5b,8,8,11a-pentamethyl-3a-((S)-2-(5-phenyl-4H-1,2,4-triazol-3-yl)pyrrolidine-1-carbonyl)-1-(prop-1-en-2-yl)icosahydro-1H-cyclopenta[a]chrysen-9-yl)oxy)carbonyl)cyclobutane-1-carboxylic acid] | 439 | 12200 | 9.06 | – | –
5 | C=C(C)[C@@H]1CC[C@]2(C(=O)N3CCC[C@H]3c3nc(-c4cccc(Cl)c4)c[nH]3)CC[C@]3(C)[C@H](CC[C@@H]4[C@@]5(C)CC[C@H](OC(=O)[C@H]6C[C@@H](C(=O)O)C6(C)C)C(C)(C)[C@@H]5CC[C@]43C)[C@@H]12 [Compound 28, (1R,3S)-3-((((1R,3aS,5aR,5bR,7aR,9S,11aR,11bR,13aR,13bR)-3a-((S)-2-(4-(3-chlorophenyl)-1H-imidazol-2-yl)pyrrolidine-1-carbonyl)-5a,5b,8,8,11a-pentamethyl-1-(prop-1-en-2-yl)icosahydro-1H-cyclopenta[a]chrysen-9-yl)oxy)carbonyl)-2,2-dimethylcyclobutane-1-carboxylic acid] | 248 | 10000 | 19.4 | 54 | 99
6 | C=C(C)[C@@H]1CC[C@]2(C(=O)N3C[C@H](O)C[C@H]3c3nc(-c4ccccc4)c[nH]3)CC[C@]3(C)[C@H](CC[C@@H]4[C@@]5(C)CC[C@H](OC(=O)[C@H]6C[C@@H](C(=O)O)C6(C)C)C(C)(C)[C@@H]5CC[C@]43C)[C@@H]12 [Compound 29, (1R,3S)-3-((((1R,3aS,5aR,5bR,7aR,9S,11aR,11bR,13aR,13bR)-3a-((2S,4R)-4-hydroxy-2-(4-phenyl-1H-imidazol-2-yl)pyrrolidine-1-carbonyl)-5a,5b,8,8,11a-pentamethyl-1-(prop-1-en-2-yl)icosahydro-1H-cyclopenta[a]chrysen-9-yl)oxy)carbonyl)-2,2-dimethyl cyclobutane-1-carboxylic acid] | 57.5 | 4500 | 12.3 | 99 | 99
7 | C=C(C)[C@@H]1CC[C@]2(C(=O)N3C[C@H](OCCOC)C[C@H]3c3nc(C(C)(C)C)c[nH]3)CC[C@]3(C)[C@H](CC[C@@H]4[C@@]5(C)CC[C@H](OC(=O)[C@H]6C[C@@H](C(=O)O)C6(C)C)C(C)(C)[C@@H]5CC[C@]43C)[C@@H]12 [Compound 31, (1R,3S)-3-((((1R,3aS,5aR,5bR,7aR,9S,11aR,11bR,13aR,13bR)-3a-((2S,4R)-2-(4-(tert-butyl)-1H-imidazol-2-yl)-4-(2-methoxyethoxy)pyrrolidine-1-carbonyl)-5a,5b,8,8,11a-pentamethyl-1-(prop-1-en-2-yl)icosahydro-1H-cyclopenta[a]chrysen-9-yl)oxy)carbonyl)-2,2-dimethylcyclobutane-1-carboxylic acid] | 195 | 9200 | 19.7 | 100 | 100
8 | C=C(C)[C@@H]1CC[C@]2(C(=O)N3C[C@H](OC)C[C@H]3c3nc(-c4ccccc4)c[nH]3)CC[C@]3(C)[C@H](CC[C@@H]4[C@@]5(C)CC[C@H](OC(=O)[C@H]6C[C@@H](C(=O)O)C6(C)C)C(C)(C)[C@@H]5CC[C@]43C)[C@@H]12 [Compound 32, (1R,3S)-3-((((1R,3aS,5aR,5bR,7aR,9S,11aR,11bR,13aR,13bR)-3a-((2S,4R)-4-methoxy-2-(4-phenyl-1H-imidazol-2-yl)pyrrolidine-1-carbonyl)-5a,5b,8,8,11a-pentamethyl-1-(prop-1-en-2-yl)icosahydro-1H-cyclopenta[a]chrysen-9-yl)oxy)carbonyl)-2,2-dimethylcyclobutane-1-carboxylic acid] | 316 | 13900 | 23.3 | 60 | 99
9 | C=C(C)[C@@H]1CC[C@]2(C(=O)N3CCC[C@H]3c3ncc(C(F)(F)F)[nH]3)CC[C@]3(C)[C@H](CC[C@@H]4[C@@]5(C)CC[C@H](OC(=O)[C@H]6C[C@@H](C(=O)O)C6(C)C)C(C)(C)[C@@H]5CC[C@]43C)[C@@H]12 [Compound 34, (1R,3S)-2,2-dimethyl-3-((((1R,3aS,5aR,5b,7aR,9S,11aR,11bR,13aR,13bR)-5a,5b,8,8,11a-pentamethyl-1-(prop-1-en-2-yl)-3a-((S)-2-(5-(trifluoromethyl)-1H-imidazol-2-yl)pyrrolidine-1-carbonyl)icosahydro-1H-cyclopenta[a]chrysen-9-yl)oxy)carbonyl)cyclobutane-1-carboxylic acid] | 417 | 18700 | 6.66 | 86 | 100
10 | C=C(C)[C@@H]1CC[C@]2(C(=O)N3CCC[C@H]3c3nc(C)c(C)[nH]3)CC[C@]3(C)[C@H](CC[C@@H]4[C@@]5(C)CC[C@H](OC(=O)[C@H]6C[C@@H](C(=O)O)C6(C)C)C(C)(C)[C@@H]5CC[C@]43C)[C@@H]12 [Compound 35, (1R,3S)-3-((((1R,3aS,5aR,5bR,7aR,9S,11aR,11bR,13aR,13bR)-3a-((S)-2-(4,5-dimethyl-1H-imidazol-2-yl)pyrrolidine-1-carbonyl)-5a,5b,8,8,11a-pentamethyl-1-(prop-1-en-2-yl)icosahydro-1H-cyclopenta[a]chrysen-9-yl)oxy)carbonyl)-2,2-dimethylcyclobutane-1-carboxylic acid] | 250 | 14000 | 2.81 | 100 | 100
11 | C=C(C)[C@@H]1CC[C@]2(C(=O)N3CCC[C@H]3c3ncc[nH]3)CC[C@]3(C)[C@H](CC[C@@H]4[C@@]5(C)CC[C@H](OC(=O)[C@H]6C[C@@H](C(=O)O)C6(C)C)C(C)(C)[C@@H]5CC[C@]43C)[C@@H]12 [Compound 36, (1R,3S)-3-((((1R,3aS,5aR,5bR,7aR,9S,11aR,11bR,13aR,13bR)-3a-((S)-2-(1H-imidazol-2-yl)pyrrolidine-1-carbonyl)-5a,5b,8,8,11a-pentamethyl-1-(prop-1-en-2-yl)icosahydro-1H-cyclopenta[a]chrysen-9-yl)oxy)carbonyl)-2,2-dimethylcyclobutane-1-carboxylic acid] | 158 | 10800 | 1.22 | 98 | 100
